Experimental data: PMC3755041 (Chemistry & biology, 2013)
One block for each compound: values may come before it.

How the values were obtained:
[1] = target: AcePrx-1 (peroxiredoxin-1) (Ancylostoma ceylanicum, UniProt J7HJM3); assay: co-crystal structure; assay type: biochemical
[2] = target: T1, human peroxiredoxin-IV (hPrxIV) (Homo sapiens, UniProt Q13162); assay: H2O2 consumption assay; assay type: biochemical
T1 sequence (Q13162 38-271): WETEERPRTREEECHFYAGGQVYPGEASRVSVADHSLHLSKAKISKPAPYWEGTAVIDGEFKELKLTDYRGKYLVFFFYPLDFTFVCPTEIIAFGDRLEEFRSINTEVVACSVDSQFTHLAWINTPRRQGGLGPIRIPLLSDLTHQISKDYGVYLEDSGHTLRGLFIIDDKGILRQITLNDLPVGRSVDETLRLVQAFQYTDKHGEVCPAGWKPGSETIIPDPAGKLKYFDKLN

[3] = target: T2, human peroxiredoxin-II (hPrxII) (Homo sapiens, UniProt P32119); assay: H2O2 consumption assay; assay type: biochemical
T2 sequence (P32119 2-198): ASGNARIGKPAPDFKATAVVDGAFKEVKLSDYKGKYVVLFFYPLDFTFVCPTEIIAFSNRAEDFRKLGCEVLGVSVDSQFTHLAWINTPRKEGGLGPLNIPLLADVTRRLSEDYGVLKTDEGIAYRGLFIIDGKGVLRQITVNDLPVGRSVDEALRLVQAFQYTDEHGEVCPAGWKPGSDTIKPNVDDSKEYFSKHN

[4] = target: T3, AcePrx-1 (peroxiredoxin-1) (Ancylostoma ceylanicum, UniProt J7HJM3); assay: LC-ESI-MS of covalent adduct on purified protein; assay type: binding
T3 sequence (J7HJM3 1-196): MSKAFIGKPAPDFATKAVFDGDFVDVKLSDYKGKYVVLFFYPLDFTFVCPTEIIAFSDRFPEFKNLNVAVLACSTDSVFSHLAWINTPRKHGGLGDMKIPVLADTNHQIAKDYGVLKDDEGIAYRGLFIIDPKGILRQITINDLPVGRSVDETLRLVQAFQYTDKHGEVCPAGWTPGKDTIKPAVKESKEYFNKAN

[5] = target: AcePrx-1 containing a C-terminal histidine tag (Ancylostoma ceylanicum); assay: SEC-MALS
[6] = target: Peroxiredoxin-1 from Ancylostoma ceylanicum, wild type, N-terminal histidine tag (Ancylostoma ceylanicum); assay: SEC-MALS
[7] = target: Peroxiredoxin-1 from Ancylostoma ceylanicum, wild type, N-terminal histidine tag (Ancylostoma ceylanicum); assay: non-reducing SDS-PAGE

Compound: [O-][n+]1c(CBr)c(CBr)[n+]([O-])c2ccccc21 [conoidin A, 2,3-bis(bromomethyl)quinoxaline-1,4-dioxide]
IC50 [1]: 374 µM
IC50 [2]: 262 µM
IC50 [3]: 358 µM

Compound: Cc1c(CBr)[n+]([O-])c2ccccc2[n+]1[O-] [conoidin B, 2-(bromomethyl)-3-methylquinoxaline-1,4-dioxide]
LC-ESI-MS of covalent adduct on purified protein [4]: Conoidin B reacted to wild type AcePrx-1 to produce a 189-Da adduct in LC-ESI-MS

stoichiometry N [5]: 10
Compound: AcePrx-1 containing a C-terminal histidine tag (enzyme)

stoichiometry N [6]: 10
stoichiometry N [7]: 2
Compound: Peroxiredoxin-1 from Ancylostoma ceylanicum, wild type, N-terminal histidine tag (enzyme)
